{"source": "patent US7101568B2", "about": "“Methods and compositions for treating solid tumors” (Guilford Pharmaceuticals, Inc., priority 1999, dated 2006)", "key": {"[1]": {"test_system": "A549 tumor nodules", "test": "Murine tumor nodule model, A549 tumor volume doubling time", "type": "in vivo, mouse", "conditions": "A549, 24 mg/kg paclitaxel", "experimental": "Athymic nude Balb/c mice were engrafted with human non-small cell lung cancer cell lines (A549 and H1299, both of which were obtained from the American Type Culture Collection).\n(§1) The cells were grown to confluence in DMEM/F12 medium (Mediatech, Herndon, Va.) supplemented with 10% fetal bovine serum (“growth medium”) under antibiotic-free conditions at 37° in a 5% CO2 atmosphere. After growing under standard these tissue culture conditions, the cells were enzymatically detached, enumerated, and the concentration was adjusted as required.\n(§2) The cells were mixed 1:1 with Matrigel™ as an enhancer for engraftment, and 2×10^6 cells were injected subcutaneously on the flanks. Tumors were allowed to grow until achieving a volume of approximately 200-400 mm^3, as determined by the formula: Tumor volume=(length)×(width)×(height) The dimensions of the tumor on each test animal were measured directly with calipers.\nVarious formulations of paclitaxel were administered to the test animals bearing tumors, either systemically or intratumorally. Each animal was weighed at the time of treatment so that dosages could be adjusted to achieve the mg/kg amounts reported. Systemic administration was achieved by injecting the test composition into the intraperitoneal cavity of the test animal. For intraperitoneal (“IP”) injections, the animals received a total injection volume of approximately 1 mL.\nIntratumoral administration (“IT”), on the other hand, was accomplished by the following procedure: • (1) injecting a single volume of about 100 μl (0.1 mL) the test composition into the center of the tumor nodule with a 21-25 gauge needle over a time period of about 10-20 seconds; • (2) infusing the volume over about 10-15 seconds, and then leaving the needle in place for an additional time of about 10-20 seconds; and • (3) withdrawing the needle. Following the treatments, all mice were tagged, and the tumors were measured three times weekly with calipers. Test animals were also weighed once weekly.\nThe tumor volume doubling time was determined from the tumor measurements in all treatment groups."}, "[2]": {"test_system": "H1299 tumor nodules", "test": "Murine tumor nodule model, H1299 tumor volume doubling time", "type": "in vivo, mouse", "conditions": "H1299, 24 mg/kg paclitaxel", "experimental": "A murine tumor nodule model, a widely used and accepted model for investigating the efficacy of therapies for solid tumors, was used to establish the utility of sustained release for solid tumors. Athymic nude Balb/c mice were engrafted with human non-small cell lung cancer cell lines (A549 and H1299, both of which were obtained from the American Type Culture Collection).\nas §1, §2\nVarious formulations of paclitaxel were administered to the test animals bearing tumors, either systemically or intratumorally. Each animal was weighed at the time of treatment so that dosages could be adjusted to achieve the mg/kg amounts reported. […]\nIntratumoral administration (“IT”), on the other hand, was accomplished by the following procedure: • (1) injecting a single volume of about 100 μl (0.1 mL) the test composition into the center of the tumor nodule with a 21-25 gauge needle over a time period of about 10-20 seconds; • (2) infusing the volume over about 10-15 seconds, and then leaving the needle in place for an additional time of about 10-20 seconds; and • (3) withdrawing the needle. Following the treatments, all mice were tagged, and the tumors were measured three times weekly with calipers. […]\nTime-dependent changes in H1299 tumor nodule growth and/or sizes following different treatments were determined. […]"}, "[3]": {"conditions": "intratumoral, listed as conventional paclitaxel"}}, "data": [{"smiles": "CC(=O)O[C@H]1C(=O)[C@@]2(C)[C@H]([C@H](OC(=O)c3ccccc3)[C@]3(O)C[C@H](OC(=O)[C@H](O)[C@@H](NC(=O)c4ccccc4)c4ccccc4)C(C)=C1C3(C)C)[C@]1(OC(C)=O)CO[C@@H]1C[C@@H]2O", "note": "[conventionally formulated paclitaxel, paclitaxel]", "values": [{"measurement": "tumor volume doubling time", "setting": "[1]; intraperitoneal", "value": "11.5 ± 2.3", "unit": "days"}, {"measurement": "tumor volume doubling time", "setting": "[1]; intratumoral", "value": "10.2 ± 4.7", "unit": "days"}, {"measurement": "tumor volume doubling time", "setting": "[1]; [3]", "value": 10, "unit": "days"}, {"measurement": "tumor volume doubling time", "setting": "[2]; intraperitoneal", "value": "12 ± 1.9", "unit": "days"}, {"measurement": "tumor volume doubling time", "setting": "[2]; intratumoral", "value": "11.2 ± 1.9", "unit": "days"}, {"measurement": "tumor volume doubling time", "setting": "[2]; [3]", "value": 11, "unit": "days"}]}]}
